Measurements published in paper PMC11279897, “Isolation of Alpha-Glucosidase Inhibitors from the Panamanian Mangrove Plant Mora oleifera (Triana ex Hemsl.) Ducke” (Pharmaceuticals, 2024).

How the values were obtained:
alpha-glucosidase enzyme = assay: Inhibition of alpha-glucosidase assay (PNPG substrate, 96-well plate); type: biochemical; conditions: enzyme from Saccharomyces cerevisiae
Description: The assay was performed in 96-well plates. Both test samples and the positive control were dissolved in DMSO or MeOH. Test samples (20 μL) were added to their respective wells containing 150 μL of the enzyme (from Saccharomyces cerevisiae purchased from Sigma-Aldrich Co., St. Louis, MO, USA) solution (32 mU/mL), followed by incubation at 37 °C for 7 min. Subsequently, 150 μL of PNPG (4-Nitrophenyl-[…]-D-glucopyranoside, 2 mM) was introduced into each well, and the plate was further incubated at 37 °C for 20 min. The resulting absorbance, corresponding to the p-nitrophenol released during the reaction, was measured at 400 nm. All assays were performed in duplicate. The activity of the samples was calculated as a percentage relative to the control (DMSO or MeOH, instead of the sample solution), using the following equation: %Inhibition=(∆ Acontrol−∆ Asample)/∆ Acontrol×100%
ΔAcontrol: absorbance of the control—absorbance of the blank
ΔAsample: absorbance of the sample—absorbance of the sample blank.
The concentration necessary to achieve a 50% inhibition of enzyme activity (IC50) was calculated through regression analysis. Data obtained from alpha-glucosidase inhibition assays were expressed as the mean ± standard deviation (SD) of three replicates. Statistical analysis was performed using Excel 2019 (Microsoft, Seattle, WA, USA). Finally, a one-way analysis of variance (ANOVA) followed by Tukey’s post-test was used to evaluate possible differences between the means of each data. To determine significant differences, statistical significance was defined as p-values ≤ 0.05 [25].

alpha-glucosidase = assay: Kinetics of alpha-glucosidase inhibition (Lineweaver-Burk plot); type: biochemical, Saccharomyces cerevisiae; conditions: Lineweaver-Burk plots, two inhibitor concentrations, various PNPG concentrations
Description: To determine the mode of inhibition of the compounds, fixed amounts of alpha-glucosidase were incubated with increasing concentrations of PNPG at 37 °C for 15 min, both in the absence and presence of inhibitors. Subsequently, the reactions were stopped, the sample absorbances were measured, and then the values obtained were analyzed using the Lineweaver–Burk plot. For this assay, three evaluations were performed, one in the absence of the inhibitor and the other using different concentrations of the inhibitors (at concentrations equivalent to their respective IC50 values). Again, the evaluations of each compound were performed in triplicate.

Compound	IC50 (alpha-glucosidase enzyme) [nM]	mode of inhibition of alpha-glucosidase (alpha-glucosidase)
C=C(C)[C@@H]1CC[C@]2(C)CC[C@]3(C)[C@H](CC[C@@H]4[C@@]5(C)CCC(=O)C(C)(C)[C@@H]5CC[C@]43C)[C@@H]12 [Compound 1, lupenone]	720	reversible competitive inhibition
C=C(C)[C@@H]1CC[C@]2(C)CC[C@]3(C)[C@H](CC[C@@H]4[C@@]5(C)CC[C@H](O)C(C)(C)[C@@H]5CC[C@]43C)[C@@H]12 [Compound 2, lupeol]	1050	
C[C@H]1[C@H](C)CC[C@]2(C)CC[C@]3(C)C(=CC[C@@H]4[C@@]5(C)CC[C@H](O)C(C)(C)[C@@H]5CC[C@]43C)[C@H]12 [Compound 3, α-amyrin]	2130	
CC1(C)CC[C@]2(C)CC[C@]3(C)C(=CC[C@@H]4[C@@]5(C)CC[C@H](O)C(C)(C)[C@@H]5CC[C@]43C)[C@@H]2C1 [Compound 4, β-amyrin]	1220	
CCCCCCCCCCCCCCCC(=O)O [Compound 5, palmitic acid]	240000	
CC[C@H](CC[C@@H](C)[C@H]1CC[C@H]2[C@@H]3CC=C4C[C@@H](O)CC[C@]4(C)[C@H]3CC[C@]12C)C(C)C [Compound 6, sitosterol]	18700	reversible competitive inhibition
CC[C@H](/C=C/[C@@H](C)[C@H]1CC[C@H]2[C@@H]3CC=C4C[C@@H](O)CC[C@]4(C)[C@H]3CC[C@]12C)C(C)C [Compound 7, stigmasterol]	163000	reversible competitive inhibition
C[C@H]1O[C@H](O[C@H]2[C@H](O)[C@@H](O)[C@@H](O[C@H]3[C@H](O)[C@@H](O)C(O)O[C@@H]3CO)O[C@@H]2CO)[C@H](O)[C@@H](O)[C@@H]1N[C@H]1C=C(CO)[C@@H](O)[C@H](O)[C@H]1O (some centres unmarked) [acarbose, reference compound]		competitive inhibition
